Results on 14 compounds are retold here after the OPERA property sets (Mansouri et al. 2018).

One may read the logP as a log measure of how a compound divides between an organic and an aqueous phase. Low readings indicate a more hydrophilic compound, high ones a more lipophilic compound. For `c1ccc2c(N3CCNCC3)nsc2c1`, the logP was 2.14.

In turn, `Cc1ccccc1N1CCNCC1` registered a logP of 2.14.

With `Fc1ccnc(N2CCNCC2)n1`, the logP was 0.97.

Consider `FC(F)(F)c1cccc(N2CCNCC2)c1`, for which the lipophilicity (logP) came out at 2.43.

In the case of `COc1ccccc1N1CCNCC1`, the logP stood at 1.67.

The compound `Clc1cccc(N2CCNCC2)c1` gave a logP of 2.11.

`Clc1ccc(N2CCNCC2)cc1` yielded a logP of 2.01.

On to `c1csc(N2CCNCC2)n1`, for which the log partition coefficient (logP) was found to be 0.61.

The compound `Clc1ccccc1N1CCNCC1` gave a logP of 2.13.

Compound `Fc1ccc(N2CCNCC2)cc1` had a logP of 1.28.

On to `c1cnc(N2CCNCC2)nc1`, for which the logP was 0.49.

On to `c1ccc2nc(N3CCNCC3)ccc2c1`, for which the logP came to 2.04.

For `c1ccc(N2CCNCC2)cc1`, the logP is 1.1.

In turn, `c1ccc(N2CCNCC2)nc1` displayed a logP of 0.74.
